Assay results from US20220331219A1, “METHODS AND COMPOSITIONS FOR PROVIDING SKIN CARE BENEFITS” (DANISCO US INC., priority 2019, published 2022).
Marks after values point to notes of the source that are not given here.

Key:
[1] = system: Phenion® Full-Thickness (FT) Skin Model; assay: Lipidomic profile of skin model after topical treatment (LC-MS); type: cell-based, human
[2] = MVL*H2O solubility in water (equilibrium DS content); type: physicochemical; settings: calculated to purity 100
Description: Solubility is one property to characterize a crystalline compound. Crystallization is possible only above solubility concentration in supersaturated syrups. Solubility determines minimal DS concentration for the crystallization at given temperatures. The solubility is determined by standard methods like analyzing the equilibrium concentration from crystal suspension.
Equilibrium DS contents were measured and calculated between 0-20° C. range (Table 14).

[3] = system: reconstructed human epidermis (RHE); assay: Caffeine diffusion test ([14C]-caffeine diffusion, barrier function); type: cell-based; settings: for Barrier function (% control) / [14C]-caffeine diffusion, % control / [14C]-caffeine diffusion, Mean (cpm): systemic, 7 days
Description: A test referred to as “caffeine diffusion test” was performed, which consists of the measurement of the effect of compounds mevalonolactone (MVL) on the skin barrier reinforcement. It is one method to measure skin barrier function (strength) as when the skin barrier has been strengthened, the amount of penetrating tracer molecules decreases (i.e. if skin is damaged more, the easier the tracer penetrates the skin). In this study, the effect of mevalonolactone, was assessed on [^14C]-caffeine diffusion through reconstructed human epidermis (RHE) under basal condition, in order to evaluate the skin barrier function. Caffeine diffusion is inversely proportional to barrier function. RHE (RHE, 0-day-old, Bioalternatives reference: EPI-Ba, batch n° 01015-515) were cultured under the following conditions: 37° C., 5% CO2, and the culture media was the Bioaltematives maintenance medium. The tested MVL concentration were 0.001%, 0.005% and 0.01% by weight of assay medium, in systemic way (added to the culture media).
RHE at day 0 were placed at the air/liquid interface in culture medium containing or not (control) the test compounds, their association or the reference (vitamin C at 200 μg/ml) (systemic application). RHE were then, incubated for 7 days with treatment renewals at day 3 and day 5. All experimental conditions were performed in n=3.
At the end of incubation (D7), radioactive caffeine ([^14C]-caffeine) was applied onto the surface of each epidermis. The radioactivity contained in subnatants was measured by liquid scintillation according to the following kinetic: 30 minutes, 1 and 2 hours.
Raw data were analyzed using Microsoft Excel® software and GraphPad PRISM® software. The inter-group comparisons were performed by an unpaired Student's t-test. The statistical analysis can be interpreted if n≥5, however for n<5 the statistical values are for information only. Formulas used in this report:
Standard error of the mean: sem=Sd/√n; Barrier function: […]

[4] = system: female Caucasian subjects with dry skin; assay: Skin transepidermal water loss (TEWL) after topical cream application (skin barrier function); type: in vivo, human; settings: for Δ TEWL MVL (MVL cream zone − placebo cream zone): normalized to control and placebo, 1% MVL cream pH 5.5; for Δ TEWL MVL (Dx-D0): normalized to control, placebo and baseline D0
Description: Mevalonolactone was obtained and purified as described herein and formulated in a standard cosmetic base, at 1% of total composition by weight, resulting in cosmetic a composition (such as but not limited to a cosmetic cream). […] The base cream formula can be any formula well known to one skilled in the art.
Two separated studies were performed. Study 1 consisted of measuring the skin transepidermal water loss after topical application of the cosmetic creams (a cream with 1% MVL of total composition by weight called “MVL cream” and the control cream which was the same cream without MVL called “placebo”) formulated at pH=5.5, the skin physiological pH.
The cosmetic formulations comprising MVL as the active ingredient and the placebo treatment were applied to 6 female Caucasian subjects with dry skin (electrical capacitance<50 A.U.) by topical application.
For 2 weeks, each subject applied the MVL containing formulation and placebo formulation according to randomization. twice a day (in the morning and in the evening), under normal conditions of use (on clean skin, by slight massage until complete penetration), on delimited zones on their forearms.
Evaluation of the efficacy of the treatment was conducted by measuring the evolution of the transepidermal water loss of the skin induced by the cosmetic compositions on the skin. Water loss of the skin was determined by measurement of Trans Epidermal Water Loss (T.E.W.L. g/m^2/h) which is a non-invasive method to assess the integrity of the stratum corneum barrier function, by quantifying the water exchanges between the skin and the environment (Loden M. et al., 1992, British J of Dermatol 1992; 126: 137-141). Damage of the stratum corneum results in an increase in the T.E.W.L., leading to a more pervious skin. This method enables to assess and compare the protective effect of cosmetic investigational compositions on the cutaneous barrier between themselves, after repeated applications. and in comparison, with a control area (non-treated) and with values obtained before any products application.
In this study, the TEWL (g/m^2/h) was assessed at 5 different time points (Day 0 (baseline before product application). […]

[5] = 13% MVL solution in DPBS, 20 μl topical, 24 hours, vs control without MVL
[6] = MVL treated skin tissue, 24 hours

## C[C@@](O)(CCO)CC(=O)O [MVA, (3R)-3,5-Dihydroxy-3-methylpentanoic acid]
[1]; MVA treated skin model
  cholesterol amount (in words): stay stable
[1]; topical MVA, exact same test condition as Example 26
  cholesterol/cholesterol sulfate ratio (in words): decrease
[1]; topical MVA, exact same test condition as Example 26, p = 0.088
  MVA treatment effect: Ratio Cholesterol/Cholesterol sulfate: −

## CC1(O)CCOC(=O)C1.O (stereo not shown) [MVL* H2O, Mevalonolactone monohydrate]
[2]; 0 °C
  solubility: 43.9 % DS
[2]; 4.8 °C
  solubility: 52.3 % DS
[2]; 9.8 °C
  solubility: 61.2 % DS
[2]; 15.0 °C
  solubility: 70.6 % DS
[2]; 20.0 °C
  solubility: 79.7 % DS

## C[C@@]1(O)CCOC(=O)C1 [MVL, (R)-3-Hydroxy-3-methyl-δ-valerolactone]
[3]; 0.001%, 30 min
  Barrier function (% control): 128 % control
  [14C]-caffeine diffusion, % control: 77 % control
  [14C]-caffeine diffusion, Mean (cpm): 14907 cpm
[3]; 0.001%, 1 hour
  Barrier function (% control): 106 % control
  [14C]-caffeine diffusion, % control: 94 % control
  [14C]-caffeine diffusion, Mean (cpm): 48423 cpm
[3]; 0.001%, 2 hours
  Barrier function (% control): 99 % control
  [14C]-caffeine diffusion, % control: 101 % control
  [14C]-caffeine diffusion, Mean (cpm): 117165 cpm
[3]; 0.005%, 30 min
  Barrier function (% control): 113 % control
  [14C]-caffeine diffusion, % control: 87 % control
  [14C]-caffeine diffusion, Mean (cpm): 16927 cpm
[3]; 0.005%, 1 hour
  Barrier function (% control): 93 % control
  [14C]-caffeine diffusion, % control: 107 % control
  [14C]-caffeine diffusion, Mean (cpm): 55034 cpm
[3]; 0.005%, 2 hours
  Barrier function (% control): 95 % control
  [14C]-caffeine diffusion, % control: 106 % control
  [14C]-caffeine diffusion, Mean (cpm): 122324 cpm
[3]; 0.01%, 30 min
  Barrier function (% control): 97 % control
  [14C]-caffeine diffusion, % control: 102 % control
  [14C]-caffeine diffusion, Mean (cpm): 19700 cpm
[3]; 0.01%, 1 hour
  Barrier function (% control): 96 % control
  [14C]-caffeine diffusion, % control: 104 % control
  [14C]-caffeine diffusion, Mean (cpm): 53545 cpm
[3]; 0.01%, 2 hours
  Barrier function (% control): 99 % control
  [14C]-caffeine diffusion, % control: 101 % control
  [14C]-caffeine diffusion, Mean (cpm): 116509 cpm
[1]; [5]
  MVL treatment effect: CE-Cholesterol Esters: +
  MVL treatment effect: CL-CardioLipin*: −
  MVL treatment effect: DAG-Diacylglycerol: −
  MVL treatment effect: HexCer-Hexosylceramide*: +
  MVL treatment effect: LPE*: −
  MVL treatment effect: LPE-0: −
  MVL treatment effect: LPG-lyso-PG: −
  MVL treatment effect: PA-Phosphatidate (PA and LPA): +
  MVL treatment effect: PC Phosphatidylcholine (PC 15:1;0_16:0;0*): +
  MVL treatment effect: PC-O- Phosphatidylcholine-ether (PC-O 16:1;0/18:2;0, plasmalogen): +
  MVL treatment effect: PE (species listed, *): −
  MVL treatment effect: PE O-16:1;0/18:1;0*: −
  MVL treatment effect: PI-Phosphatidylinositol: −
  MVL treatment effect: Phosphatidylglycerol (PG species listed, *): −
  MVL treatment effect: TAG-Triacylglycerol (TAG 47:2;0): +
[1]; [6]
  Cholesterol level (in words): unchanged
  PG/CL versus control samples (in words): significant decrease
  ceramides level (in words): unchanged
  cholesterol esters (CE) versus control samples (in words): significant increase
  diacylglycerol (DAG) versus control samples (in words): significant decrease
  hexosylceramide (HexCer) versus control samples (in words): significant increase
  phosphatidate (PA) versus control samples (in words): significant increase
  phosphatidylcholine-ether (PC-O) versus control samples (in words): significant increase
  phosphatidylcholines (PC) versus control samples (in words): significant increase
  phosphatidylethanolamine-ethers (LPE, LPE-O, PE-O) versus control samples (in words): significant decrease
  phosphatidylinositol versus control samples (in words): significant decrease
  phosphatidylserine (PS) level (in words): unchanged
  ratio cholesterol/chol sulfate (in words): unchanged
  sphingomyelin (SM) level (in words): unchanged
  triacylglycerol (TAG) versus control samples (in words): significant increase
[4]; D0
  Δ TEWL MVL (MVL cream zone − placebo cream zone): 2.06 g/m²/h
[4]; D1-D0
  Δ TEWL MVL (Dx-D0): −0.27
[4]; D1
  Δ TEWL MVL (MVL cream zone − placebo cream zone): 1.79 g/m²/h
[4]; D3-D0
  Δ TEWL MVL (Dx-D0): −0.74
[4]; D3
  Δ TEWL MVL (MVL cream zone − placebo cream zone): 1.32 g/m²/h
[4]; D7-D0
  Δ TEWL MVL (Dx-D0): −1.11
[4]; D7
  Δ TEWL MVL (MVL cream zone − placebo cream zone): 0.95 g/m²/h
[4]; D15-D0
  Δ TEWL MVL (Dx-D0): −1.04
[4]; D15
  Δ TEWL MVL (MVL cream zone − placebo cream zone): 1.02 g/m²/h
[4]; topically applied, after 2 weeks of repeated application
  skin trans epidermal water loss (in words): decreases the skin trans epidermal water loss

## O=C1O[C@H]([C@@H](O)CO)C(O)=C1O [Vitamin C, reference compound]
[3]; 200 μg/ml, systemic treatment
  caffeine diffusion through RHE (in words): decreased significantly
[3]; 200 microg/ml, 30 min
  Barrier function (% control): 171** % control
  [14C]-caffeine diffusion, % control: 58 % control
  [14C]-caffeine diffusion, Mean (cpm): 11133 cpm
[3]; 200 microg/ml, 1 hour
  Barrier function (% control): 148** % control
  [14C]-caffeine diffusion, % control: 68 % control
  [14C]-caffeine diffusion, Mean (cpm): 34839 cpm
[3]; 200 microg/ml, 2 hours
  Barrier function (% control): 128** % control
  [14C]-caffeine diffusion, % control: 79 % control
  [14C]-caffeine diffusion, Mean (cpm): 90717 cpm
